Test results: ChEMBL document CHEMBL4840351 (J Med Chem, 2021)
Calls of active or inactive are those of the source. The rule behind the calls is not given here.

How the values were obtained:
TMD8 [1] = test: Antitumor activity against human TMD8 cells xenografted in CB-17 SCID nude mouse assessed as tumor growth inhibition at 15 mg/kg, po bid administered for 21 days; assay type: functional; conditions: 504 h, time 21 day, read-out: TGI
TMD8 [2] = test: Induction of cell cycle arrest in human TMD8 cells assessed as accumulation of cells at G1 phase at 3 nM incubated for 48 hrs by PI staining based flow cytometric analysis (reference value: 57.66 %); assay type: functional
[3] = Oral bioavailability in Sprague-Dawley rat at 5 mg/kg measured upto 24 hrs by LC/MS/MS analysis; assay type: ADME, organism-based; conditions: in vivo
[4] = Toxicity in SFP CD-1 mouse assessed as pathological change in visceral organs at 10 to 1280 mg/kg, po administered for 7 days by H and E staining based assay; assay type: organism-based; conditions: in vivo, 168 h, dose 10-1280 mg/kg, time 7 day
[5] = Cmax in ICR mouse at 15 mg/kg, po after 24 hrs; assay type: ADME, organism-based; set-up: route oral, time 24 hrs, dose 15 mg/kg; conditions: in vivo
[6] = Toxicity in SFP CD-1 mouse assessed as change in body weight at 10 to 1280 mg/kg, po administered for 7 days; assay type: organism-based; conditions: in vivo, 168 h, dose 10-1280 mg/kg, time 7 day
[7] = Toxicity in SFP CD-1 mouse assessed as mortality at 10 to 1280 mg/kg, po administered for 7 days; assay type: organism-based; conditions: in vivo, 168 h, dose 10-1280 mg/kg, time 7 day
TMD8 [8] = test: Antitumor activity against human TMD8 cells xenografted in CB-17 SCID nude mouse assessed as tumor growth inhibition at 7.5 mg/kg, po bid administered for 21 days; assay type: functional; conditions: 504 h, time 21 day, read-out: TGI
[9] = AUC(0 to 8 hrs) in CB-17 SCID mouse xenografted with human TMD8 cells at 7.5 mg/kg, po bid administered for 21 days; assay type: ADME, organism-based; set-up: route oral, time 21 day, dose 7.5 mg/kg; conditions: in vivo
Raji = test: Antiproliferative activity against human Raji cells assessed as reduction in cell viability incubated for 72 hrs by celltiter-glo assay
NAMALVA = test: Antiproliferative activity against human NAMALWA cells assessed as reduction in cell viability incubated for 72 hrs by celltiter-glo assay
[10] = target: T1, Tyrosine-protein kinase BTK (Homo sapiens, UniProt Q06187); test: Inhibition of BTK in human TMD8 cells assessed as reduction in BTK autophosphorylation at Tyr 223 residue after 4 hrs by Western blot analysis; assay type: cell-based
TMD8 [11] = test: Induction of cell cycle arrest in human TMD8 cells assessed as accumulation of cells at S phase at 30 nM incubated for 48 hrs by PI staining based flow cytometric analysis (reference value: 37.42 %); assay type: functional
[12] = Volume of distribution in Sprague-Dawley rat at 5 mg/kg, iv measured upto 24 hrs by LC/MS/MS analysis; assay type: ADME, organism-based; conditions: in vivo
[13] = Toxicity in CB-17 SCID mouse xenografted with human TMD8 cells assessed as change in body weight at 3.75 to 15 mg/kg, po bid administered for 21 days; assay type: organism-based; conditions: in vivo, 504 h, dose 3.75-15 mg/kg, time 21 day
Ramos = test: Antiproliferative activity against human Ramos cells assessed as reduction in cell viability incubated for 72 hrs by celltiter-glo assay
TMD8 [14] = test: Induction of cell cycle arrest in human TMD8 cells assessed as accumulation of cells at G1 phase at 300 nM incubated for 48 hrs by PI staining based flow cytometric analysis (reference value: 57.66 %); assay type: functional
TMD8 [15] = test: Induction of apoptosis in human TMD8 cells at 300 nM incubated for 72 hrs by Annexin V-FITC/PI staining based flow cytometric analysis (reference value: 13.4 %); assay type: functional
TMD8 [16] = test: Induction of cell cycle arrest in human TMD8 cells assessed as accumulation of cells at S phase at 300 nM incubated for 48 hrs by PI staining based flow cytometric analysis (reference value: 37.42 %); assay type: functional
[17] = target: Proto-oncogene tyrosine-protein kinase Src (Homo sapiens, UniProt P12931); test: Inhibition of SRC (unknown origin)
TMD8 [18] = test: Induction of cell cycle arrest in human TMD8 cells assessed as accumulation of cells at G2 phase at 30 nM incubated for 48 hrs by PI staining based flow cytometric analysis (reference value: 4.92 %); assay type: functional
[19] = target: Tyrosine-protein kinase Blk (Homo sapiens, UniProt P51451); test: Inhibition of BLK (unknown origin)
Cytochrome P450 3A4 = Cytochrome P450 3A4 (Homo sapiens, UniProt P08684); test: Inhibition of CYP3A4M in human liver microsomes using midazolam as substrate incubated for 10 mins in presence of NADPH by LC-MS/MS analysis; assay type: ADME
[20] = Clearance in Sprague-Dawley rat at 5 mg/kg, iv measured upto 24 hrs by LC/MS/MS analysis; assay type: ADME, organism-based; conditions: in vivo
[21] = Cmax in Sprague-Dawley rat at 5 mg/kg, po measured upto 24 hrs by LC/MS/MS analysis; assay type: ADME, organism-based; set-up: route oral, dose 5 mg/kg, time <=24; conditions: in vivo
[22] = Toxicity in SFP CD-1 mouse assessed as change in temperature at 10 to 1280 mg/kg, po administered for 7 days; assay type: organism-based; conditions: in vivo, 168 h, dose 10-1280 mg/kg, time 7 day
[23] = target: Tyrosine-protein kinase Tec (Homo sapiens, UniProt P42680); test: Inhibition of TEC (unknown origin)
TMD8 [24] = test: Induction of apoptosis in human TMD8 cells at 30 nM incubated for 72 hrs by Annexin V-FITC/PI staining based flow cytometric analysis (reference value: 13.4 %); assay type: functional
[25] = target: Tyrosine-protein kinase Tec (Homo sapiens) (UniProt P42680); test: Inhibition of TEC (unknown origin) at 1 uM relative to control
Pfeiffer = test: Antiproliferative activity against human Pfeiffer cells assessed as reduction in cell viability incubated for 72 hrs by celltiter-glo assay
TMD8 [26] = test: Antiproliferative activity against human TMD8 cells assessed as reduction in cell viability incubated for 72 hrs by celltiter-glo assay; conditions: TMD8, 72 h
[27] = Receptor occupancy at BTK in PBMC of ICR mouse at 15 mg/kg, po after 24 hrs by ELISA; assay type: functional
Cytochrome P450 2D6 = Cytochrome P450 2D6 (Homo sapiens, UniProt P10635); test: Inhibition of CYP2D6 in human liver microsomes using bufuralol as substrate incubated for 10 mins in presence of NADPH by LC-MS/MS analysis; assay type: ADME
[28] = Cmax in CB-17 SCID mouse xenografted with human TMD8 cells at 7.5 mg/kg, po bid administered for 21 days; assay type: ADME, organism-based; set-up: route oral, dose 7.5 mg/kg, time 21 day; conditions: in vivo
[29] = AUC in Sprague-Dawley rat at 5 mg/kg, iv measured upto 24 hrs by LC/MS/MS analysis; assay type: ADME, organism-based; set-up: route intravenous, dose 5 mg/kg, time <=24; conditions: in vivo
[30] = target: T1, Tyrosine-protein kinase BTK; test: Inhibition of BTK in human TMD8 cells assessed as reduction in PLCgamma2 phosphorylation at Tyr 1217 residue at 0 to 1000 nM after 4 hrs by Western blot analysis; assay type: cell-based; conditions: dose 0-1000 nM
TMD8 [31] = test: Induction of cell cycle arrest in human TMD8 cells assessed as accumulation of cells at S phase at 3 nM incubated for 48 hrs by PI staining based flow cytometric analysis (reference value: 37.42 %); assay type: functional
TMD8 [32] = test: Induction of apoptosis in human TMD8 cells at 3000 nM incubated for 72 hrs by Annexin V-FITC/PI staining based flow cytometric analysis (reference value: 13.4 %); assay type: functional

T1 sequence (Q06187 whole entry): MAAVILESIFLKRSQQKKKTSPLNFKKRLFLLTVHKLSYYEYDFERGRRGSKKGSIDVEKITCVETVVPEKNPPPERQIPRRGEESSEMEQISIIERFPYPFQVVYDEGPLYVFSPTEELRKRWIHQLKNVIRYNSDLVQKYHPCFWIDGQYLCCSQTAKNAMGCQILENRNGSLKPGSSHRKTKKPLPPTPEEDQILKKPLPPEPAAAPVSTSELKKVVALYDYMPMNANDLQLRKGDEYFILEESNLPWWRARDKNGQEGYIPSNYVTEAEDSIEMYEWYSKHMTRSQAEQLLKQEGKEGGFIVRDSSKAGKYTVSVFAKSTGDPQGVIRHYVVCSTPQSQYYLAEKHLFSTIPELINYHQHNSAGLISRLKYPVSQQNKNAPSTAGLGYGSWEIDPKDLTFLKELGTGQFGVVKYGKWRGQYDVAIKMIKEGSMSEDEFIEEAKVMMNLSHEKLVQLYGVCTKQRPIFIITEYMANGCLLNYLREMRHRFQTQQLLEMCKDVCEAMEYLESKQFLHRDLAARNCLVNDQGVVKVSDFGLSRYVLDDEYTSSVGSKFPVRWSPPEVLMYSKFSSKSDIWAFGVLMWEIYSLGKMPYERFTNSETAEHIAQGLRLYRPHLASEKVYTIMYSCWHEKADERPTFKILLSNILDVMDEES
Chain of Tyrosine-protein kinase Tec (Homo sapiens) (P42680 whole entry): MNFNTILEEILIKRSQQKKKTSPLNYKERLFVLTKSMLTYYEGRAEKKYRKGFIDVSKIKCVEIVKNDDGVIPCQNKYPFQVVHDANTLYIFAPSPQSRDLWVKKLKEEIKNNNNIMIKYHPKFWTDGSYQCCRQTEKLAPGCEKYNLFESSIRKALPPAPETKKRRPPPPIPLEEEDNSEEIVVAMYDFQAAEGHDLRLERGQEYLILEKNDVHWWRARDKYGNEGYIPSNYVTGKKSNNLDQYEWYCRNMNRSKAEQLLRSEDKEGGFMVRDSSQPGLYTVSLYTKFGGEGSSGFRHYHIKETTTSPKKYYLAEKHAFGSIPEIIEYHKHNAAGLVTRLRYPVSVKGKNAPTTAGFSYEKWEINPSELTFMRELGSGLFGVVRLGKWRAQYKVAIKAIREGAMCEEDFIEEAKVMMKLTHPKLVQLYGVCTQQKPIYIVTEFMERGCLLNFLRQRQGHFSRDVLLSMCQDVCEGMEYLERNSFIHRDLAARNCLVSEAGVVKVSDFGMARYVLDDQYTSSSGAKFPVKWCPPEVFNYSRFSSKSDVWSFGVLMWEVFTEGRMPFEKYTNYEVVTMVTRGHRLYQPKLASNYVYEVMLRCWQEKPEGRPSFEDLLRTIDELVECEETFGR
Chain of Tyrosine-protein kinase Tec (P42680 whole entry): as above
Chain of Tyrosine-protein kinase Blk (P51451 whole entry): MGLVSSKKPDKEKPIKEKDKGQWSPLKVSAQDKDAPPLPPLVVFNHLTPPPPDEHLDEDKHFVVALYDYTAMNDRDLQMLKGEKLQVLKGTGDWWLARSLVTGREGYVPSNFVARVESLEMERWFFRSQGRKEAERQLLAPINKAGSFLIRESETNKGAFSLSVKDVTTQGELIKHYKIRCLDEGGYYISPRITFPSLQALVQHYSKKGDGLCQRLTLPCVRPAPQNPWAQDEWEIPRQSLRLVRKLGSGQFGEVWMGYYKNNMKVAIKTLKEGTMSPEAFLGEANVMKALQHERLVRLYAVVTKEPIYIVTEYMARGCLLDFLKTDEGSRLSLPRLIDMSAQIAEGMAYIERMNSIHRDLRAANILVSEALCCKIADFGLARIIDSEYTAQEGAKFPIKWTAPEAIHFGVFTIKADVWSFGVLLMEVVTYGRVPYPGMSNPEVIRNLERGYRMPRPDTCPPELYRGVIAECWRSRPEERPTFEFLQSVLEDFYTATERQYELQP
Chain of Proto-oncogene tyrosine-protein kinase Src (P12931 2-536 limits assumed): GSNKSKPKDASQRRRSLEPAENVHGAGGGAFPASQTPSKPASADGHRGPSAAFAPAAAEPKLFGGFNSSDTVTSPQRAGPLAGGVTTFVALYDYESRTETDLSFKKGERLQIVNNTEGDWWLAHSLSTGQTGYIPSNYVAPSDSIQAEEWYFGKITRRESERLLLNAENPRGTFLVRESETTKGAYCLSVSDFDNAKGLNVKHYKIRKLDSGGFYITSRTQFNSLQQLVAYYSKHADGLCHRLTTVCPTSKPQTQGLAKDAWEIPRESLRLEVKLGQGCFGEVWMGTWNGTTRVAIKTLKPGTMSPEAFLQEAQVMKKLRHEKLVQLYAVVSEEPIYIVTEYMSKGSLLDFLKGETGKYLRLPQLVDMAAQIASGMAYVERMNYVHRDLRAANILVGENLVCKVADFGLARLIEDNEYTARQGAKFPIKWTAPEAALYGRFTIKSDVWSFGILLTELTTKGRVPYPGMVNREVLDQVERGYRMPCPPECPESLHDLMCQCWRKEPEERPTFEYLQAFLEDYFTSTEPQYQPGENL
Chain of Cytochrome P450 2D6 (P10635 whole entry): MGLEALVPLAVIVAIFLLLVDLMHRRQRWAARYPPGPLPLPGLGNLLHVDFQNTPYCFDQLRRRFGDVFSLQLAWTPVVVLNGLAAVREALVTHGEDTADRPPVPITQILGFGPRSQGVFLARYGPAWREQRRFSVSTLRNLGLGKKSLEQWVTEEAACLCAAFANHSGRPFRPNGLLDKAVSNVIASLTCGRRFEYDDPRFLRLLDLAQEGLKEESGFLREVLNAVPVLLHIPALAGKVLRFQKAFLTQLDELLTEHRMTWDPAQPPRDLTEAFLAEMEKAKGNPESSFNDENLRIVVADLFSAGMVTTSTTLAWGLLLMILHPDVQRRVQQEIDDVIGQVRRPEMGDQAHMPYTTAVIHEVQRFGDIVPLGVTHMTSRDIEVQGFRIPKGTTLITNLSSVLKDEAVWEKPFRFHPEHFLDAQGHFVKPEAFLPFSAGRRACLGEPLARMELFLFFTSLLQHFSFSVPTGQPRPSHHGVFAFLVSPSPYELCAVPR
Chain of Cytochrome P450 3A4 (P08684 whole entry): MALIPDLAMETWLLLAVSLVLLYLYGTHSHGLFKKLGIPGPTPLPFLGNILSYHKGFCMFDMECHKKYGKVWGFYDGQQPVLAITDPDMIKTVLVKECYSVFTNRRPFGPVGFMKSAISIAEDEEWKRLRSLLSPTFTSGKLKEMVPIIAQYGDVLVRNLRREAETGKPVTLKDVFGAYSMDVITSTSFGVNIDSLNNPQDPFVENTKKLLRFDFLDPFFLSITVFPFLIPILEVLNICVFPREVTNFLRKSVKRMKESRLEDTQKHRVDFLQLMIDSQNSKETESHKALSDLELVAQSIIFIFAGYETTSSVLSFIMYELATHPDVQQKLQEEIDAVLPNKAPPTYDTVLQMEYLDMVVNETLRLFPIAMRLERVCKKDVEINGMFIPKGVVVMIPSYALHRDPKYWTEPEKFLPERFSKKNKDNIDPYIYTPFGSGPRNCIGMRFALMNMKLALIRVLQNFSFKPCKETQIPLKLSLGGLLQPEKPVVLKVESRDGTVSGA

C=CC(=O)N1CCCC[C@H]1c1nc(-c2ccc(C(=O)Nc3cc(C(F)(F)F)ccn3)cc2)c(C(N)=O)n1N
inhibition in vivo at 15 mg/kg (TMD8 [1]): 106% | Activity (TMD8 [2]): 54.21% | bioavailability [3]: 31.4% | Activity [4]: Non-Toxic | Cmax [5]: 2380 nM | Activity [6]: Non-Toxic | Activity [7]: Non-Toxic | inhibition in vivo at 7.5 mg/kg (TMD8 [8]): 96% | AUC at 504 h [9]: 1780 ng·h/mL | IC50 (Raji): 4.3 µM | IC50 (NAMALVA): 4.1 µM | IC50 [10]: 8.96 nM | Activity (TMD8 [11]): 10.95% | Vd [12]: 1.5 L/kg | Activity [13]: Non-Toxic | IC50 (Ramos): 2500 nM | Activity (TMD8 [14]): 93.84% | Activity (TMD8 [15]): 34.1% | Activity (TMD8 [16]): 2.37% | inhibition (INH) [17]: Not Active | Activity (TMD8 [18]): 4.69% | IC50 [19]: 170 nM | IC50 (Cytochrome P450 3A4): > 10 µM | clearance [20]: 13.4 mL/min/kg | Cmax [21]: 501 ng/mL | Activity [22]: Non-Toxic | IC50 [23]: 15.7 nM | Activity (TMD8 [24]): 19.2% | inhibition [25]: > 80% | IC50 (Pfeiffer): 2500 nM | IC50 (TMD8 [26]): 25 nM | Occ [27]: 91% | IC50 (Cytochrome P450 2D6): > 10 µM | Cmax [28]: 1000 ng/mL | AUC at 24 h [29]: 6360 ng·h/mL | inhibition [30]: Active | Activity (TMD8 [31]): 37.86% | Activity (TMD8 [32]): 68.4%
